Measurements reported in patent publication US7557268B1, “Promoter for expression of a gene and response to infection or wounding” (priority 1999, dated 2009).
Where two headings read alike, the source gives them in different places.

Experiments:
[1] = test system: sugar beet promoter (gus reporter) in transgenic rape lines AG5947-t38, AG5947-t48; assay: Induction of the promoter in leaf disks of transgenic rape by salicylic acid and PMG-elicitor; assay type: cell-based; conditions: SA 0.5 mM, PMG-Elicitor 25 μg/ml
Source text: In order to examine the effect of salicylic acid and a purified PMG-elicitor from the cell wall of Phytophthora sojae (Valent, 1978) on the promoter activity, leaf disks with a diameter of 14 mm were stamped out of the leaves of greenhouse plants with the aid of a cork punch. The use of leaf disks facilitates the uptake of the salicylic acid or as the case may be the elicitor along the wound edge into the leaf tissue. Respectively 10 leaf disks from leaves of the transformed AG5947-t38 and […] were incubated in 90 mm sized petri dishes in salicylic acid containing medium (LS-medium without sucrose, 5 mM MES pH 7.0, 0.5 mM SA), in PMG-elicitor containing medium (LS-medium without sucrose, 5 mM MES pH 7.0, 25 μg elicitor/ml) or in control medium (LS-medium without sucrose, 5 mM MES pH 7.0) for 16 hours at 24° C. The activity of a promoter is described as in Jefferson (1987) measured by a quantitative determination of the GUS-activity.

[2] = test system: sugar beet promoter (pAG5947-trans, gus reporter) in transgenic tobacco PR1-52; assay: Promoter activity in leaf disks of transgenic tobacco PR1-52 with increasing plant age; assay type: cell-based, Nicotianum tabacum cv. SR1; conditions: for Separated + SA Specific GUS-Activity: leaf disks, 0.5 mM SA, 16 hours; for SA-Induction: vs fresh harvested control leaves
Method: […] SR1. The produced tobacco transformates are given identification PR1-52, PR1-54 and PR1-56. The transformate PR1-52 is multiplied and placed in a greenhouse. After the plant has achieved a height of approximately 20 cm, the activatability of the sugar beet promoter is analyzed depending upon the plant age. For this, 6 leaves of different ages on the plant were selected. The oldest, lowest leaf is given reference number 1 and the youngest, highest leaf is given the reference number 6. From the leaf half of one of each leaf there is stamped out, with the aid of a 14 mm cork punch, respectively 15 equally sized leaf disks. Respectively 5 leaf disks are incubated in 90 mm sized petri dishes in salicylic acid containing medium (LS-Medium without Sucrose, 5 mM MES pH 7.0, 0.5 mM SA), in PMG-elicitor containing medium (LS-Medium without Sucrose, 5 mM MES pH 7.0, 1 unit elicitor/ml) or in control medium (LS-Medium without Sucrose, 5 mM MES pH 7.0) for 16 hours at 24° C. On the next day, from each treated leaf half again 5 disks were stamped out for control purposes. The activity of the promoter in these disks as well as the disks incubated over night were measured according to Jefferson (1987) by a quantitative determination of the GUS-activity. After 16 days the corresponding test is repeated with the still intact leaf halves of the leaves 1-6. The tobacco plant is in the meantime grown and approximately 50-60 cm high. […] The promoter activity increases with increasing age of the transgenic plants. The wounding or as the case may be the elicitation or as the case may be salicylic acid application leads, in the reporter gene plant with high plant age, in all examined leaves to a higher reporter gene activity and therewith promoter activity. The plant age has however no influence on the relative induction of the promoter by wounding, elicitation or salicylic acid application.

[3] = test system: pAG5947-trans promoter (gus reporter) in PR1-52, PR1-54, PR1-56; assay: Promoter activity of pAG5947-trans in leaf disks of transgenic tobacco; assay type: cell-based; conditions: for SA-Induction: vs fresh harvested control leaves
[4] = test system: pAG516 promoter deletion (gus reporter) in PR4-19, PR4-21, PR4-22; assay: Promoter activity of deletion construct pAG516 in leaf disks of transgenic tobacco; assay type: cell-based; conditions: for Separated + SA Specific GUS Activity: leaf disks; for SA-Induction: vs fresh harvested control leaves
[5] = test system: pAG2339 promoter deletion (gus reporter) in PR8-2, PR8-3, PR8-12; assay type: cell-based, tobacco; conditions: leaf disks, SA
[6] = test system: SR1 non-transgenic starting line; assay: GUS activity in leaf disks of the non-transgenic tobacco starting line; assay type: cell-based
[7] = test system: promoter activity (transcript amount) in leaves of sugar beets; assay: Activation of the promoter in sugar beet leaf disks by salicylic acid, RNA-blot with phosphoimager; assay type: cell-based; conditions: for transcript amount formed by the promoter activity: sugar beet leaf disks, 2.0 mM Salicyclic Acid
Method: In order to investigate the reaction of the promoter in sugar beet leaves to abiotic triggers such as wounds or, as the case may be, on the effect of resistance inductors such as salicylic acid, leaf disks (1 cm diameter) were punched out of 12 week old sugar beets with the aid of a cork stamp. Respectively 100 leaf disks were incubated in control medium (LS-Medium without Sucrose, 5 mM MES pH 7.0) or in salicylic acid containing medium (LS-Medium without Sucrose, 5 mM MES pH 7.0, 2.0 mM SA) for 16 hours at 24° C. Total cell RNA was isolated and an RNA-blot analysis was carried out as described above. The intensity of the hybridization as signal on the RNA-blot was quantified with the aid of a Phosphoimager. The promoter activity of the disks in the control set is not constant over the experiment (Table 8). Based on the 0 hour value, the promoter activity in the control set falls slightly after 3 hours, only to then increase over 6 hours and 11 hours until the 24 hour value. After 24 hours the transcript amount in the control set is approximately 3-fold higher than in the beginning of the experiment (0 h). This rise in the promoter activity is to be traced back to the wounding of the leaf tissue during the stamping out of the leaf disks. […] In the salicylic acid containing medium there is likewise a rise in the transcript amount depending upon the time (Table 8). […] Thus the transcript amount after 24 hours is approximately the 8.5-fold of the 0 h value. The cause of the higher activity of the promoter in the salicylic acid containing medium is the inducibility of the promoter by salicylic acid.

## O=C(O)c1ccccc1O [SA, salicylic acid]
[1]; AG5947-t38 leaf disks, 16 hours at 24° C.
  AG5947-t38 Specific GUS-Activities: 485.3 pMol Mu × min^−1 × mg^−1
[1]; AG5947-t38 leaf disks, vs control medium
  AG5947-t38 Induction: 19.8
[1]; AG5947-t48 leaf disks, 16 hours at 24° C.
  AG5947-t48 Specific GUS-Activity: 17.2 pMol Mu × min^−1 × mg^−1
[1]; AG5947-t48 leaf disks, vs control medium
  AG5947-t48 Induction: 9.2
[2]; PR1-52, Leaf 1, t = 0 d
  Separated + SA Specific GUS-Activity: 314.92 pMol Mu × min^−1 × mg^−1
  SA-Induction: 5.3
[2]; PR1-52, Leaf 1, t = 16 d
  Separated + SA Specific GUS-Activity: 861.82 pMol Mu × min^−1 × mg^−1
  SA-Induction: 30.5
[2]; PR1-52, Leaf 2, t = 0 d
  Separated + SA Specific GUS-Activity: 205.53 pMol Mu × min^−1 × mg^−1
  SA-Induction: 13.6
[2]; PR1-52, Leaf 2, t = 16 d
  Separated + SA Specific GUS-Activity: 2358.18 pMol Mu × min^−1 × mg^−1
  SA-Induction: 30.7
[2]; PR1-52, Leaf 3, t = 0 d
  Separated + SA Specific GUS-Activity: 225.07 pMol Mu × min^−1 × mg^−1
  SA-Induction: 21.7
[2]; PR1-52, Leaf 3, t = 16 d
  Separated + SA Specific GUS-Activity: 555.62 pMol Mu × min^−1 × mg^−1
  SA-Induction: 8.8
[2]; PR1-52, Leaf 4, t = 0 d
  Separated + SA Specific GUS-Activity: 117.97 pMol Mu × min^−1 × mg^−1
  SA-Induction: 25.7
[2]; PR1-52, Leaf 4, t = 16 d
  Separated + SA Specific GUS-Activity: 1561.3 pMol Mu × min^−1 × mg^−1
  SA-Induction: 44.5
[2]; PR1-52, Leaf 5, t = 0 d
  Separated + SA Specific GUS-Activity: 140.37 pMol Mu × min^−1 × mg^−1
  SA-Induction: 29.4
[2]; PR1-52, Leaf 5, t = 16 d
  Separated + SA Specific GUS-Activity: 1220.71 pMol Mu × min^−1 × mg^−1
  SA-Induction: 9.0
[2]; PR1-52, Leaf 6, t = 0 d
  Separated + SA Specific GUS-Activity: 106.35 pMol Mu × min^−1 × mg^−1
  SA-Induction: 319.4
[2]; PR1-52, Leaf 6, t = 16 d
  Separated + SA Specific GUS-Activity: 1003.47 pMol Mu × min^−1 × mg^−1
  SA-Induction: 47.0
[3]; PR1-52 (pAG5947-trans), leaf disks
  Separated + SA Specific GUS Activity: 218.93 pMol Mu × min^−1 × mg^−1
[3]; PR1-52 (pAG5947-trans)
  SA-Induction: 14.5
[3]; PR1-54 (pAG5947-trans), leaf disks
  Separated + SA Specific GUS Activity: 167.83 pMol Mu × min^−1 × mg^−1
[3]; PR1-54 (pAG5947-trans)
  SA-Induction: 8.0
[3]; PR1-56 (pAG5947-trans), leaf disks
  Separated + SA Specific GUS Activity: 661.19 pMol Mu × min^−1 × mg^−1
[3]; PR1-56 (pAG5947-trans)
  SA-Induction: 8.3
[3]; lines PR1-52, PR1-54 and PR1-56 transformed with pAG5947-trans, leaf disks
  change of reporter gene / promoter activity (in words): significant induction
[4]; PR4-19 (pAG516)
  Separated + SA Specific GUS Activity: 16.6 pMol Mu × min^−1 × mg^−1
  SA-Induction: 2.3
[4]; PR4-21 (pAG516)
  Separated + SA Specific GUS Activity: 21.3 pMol Mu × min^−1 × mg^−1
  SA-Induction: 0.6
[4]; PR4-22 (pAG516)
  Separated + SA Specific GUS Activity: 19.3 pMol Mu × min^−1 × mg^−1
  SA-Induction: 3.6
[4]; plants transformed with the construct pAG516, leaf disks
  SA-inducibility (in words): small SA-inducibility
[5]; PR8-2 (pAG2339)
  Separated + SA Specific GUS Activity: 1.7 pMol Mu × min^−1 × mg^−1
[5]; PR8-3 (pAG2339)
  Separated + SA Specific GUS Activity: 0 pMol Mu × min^−1 × mg^−1
[5]; PR8-12 (pAG2339)
  Separated + SA Specific GUS Activity: 0 pMol Mu × min^−1 × mg^−1
[6]; leaf disks, SA
  Separated + SA Specific GUS Activity: 6.2 pMol Mu × min^−1 × mg^−1
[6]; vs fresh harvested control leaves
  SA-Induction: 0.8
[7]; sugar beet leaf disks in salicylic acid containing medium (2.0 mM SA)
  transcript amount after 24 hours relative to the 0 h value: ~8.5 fold
[7]; Time 0 h
  transcript amount formed by the promoter activity: 81 PSL (photo stimulated luminescence)-units
[7]; Time 3 h
  transcript amount formed by the promoter activity: 107 PSL (photo stimulated luminescence)-units
[7]; Time 6 h
  transcript amount formed by the promoter activity: 284 PSL (photo stimulated luminescence)-units
[7]; Time 11 h
  transcript amount formed by the promoter activity: 513 PSL (photo stimulated luminescence)-units
[7]; Time 24 h
  transcript amount formed by the promoter activity: 688 PSL (photo stimulated luminescence)-units
